According to patent US20230192717A1, “COMPOSITIONS AND METHODS OF MODULATING SHORT-CHAIN DEHYDROGENASE ACTIVITY” (RODEO THERAPEUTICS CORPORATION, priority 2020, published 2023):
Converted amounts (≈) assume the structure as drawn.

Key:
[1] = kinetic aqueous solubility in pH 7 citrate buffer; type: physicochemical; conditions: kinetic from dmso stock, pH 7 citrate buffer solution, read-out: Kinetic Aq solubility (μM pH 7)
recombinant 15-PGDH = target: T1, recombinant 15-PGDH (Homo sapiens, UniProt P15428); experiment: inhibition of enzymatic activity of recombinant 15-PGDH in vitro; type: biochemical; conditions: recombinant human 15-PGDH
T1 sequence (P15428 1-266): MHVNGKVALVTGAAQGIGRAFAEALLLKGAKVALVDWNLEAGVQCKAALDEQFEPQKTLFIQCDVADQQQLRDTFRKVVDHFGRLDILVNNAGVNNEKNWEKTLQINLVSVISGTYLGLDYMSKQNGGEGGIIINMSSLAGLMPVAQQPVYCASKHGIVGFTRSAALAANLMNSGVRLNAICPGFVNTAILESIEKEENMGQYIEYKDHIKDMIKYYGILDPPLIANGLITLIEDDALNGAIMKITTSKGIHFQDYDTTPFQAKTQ
Description: The Recombinant 15-PGDH is human unless otherwise specified.

hERG channels = hERG channels (Homo sapiens, UniProt Q12809); experiment: hERG test on manual patch-clamp system; type: cell-based; conditions: CHO-K1 cells expressing hERG, whole-cell patch clamp, room temperature
Experimental: Visual check for precipitation was conducted before testing.

CYP 2D6 = target: T2, CYP 2D6 (Homo sapiens, UniProt P10635); experiment: microsomal CYP inhibition, 2D6; type: in vitro ADME; conditions: human liver microsomes 0.2 mg/ml, substrate Dextromethorphan
T2 construct: pooled human liver microsomes (Corning, Xenotech, or other qualified vendors; pooled from multiple donors); tissue Corning, Xenotech, or other qualified vendors; host or cells: pooled human liver microsomes
Experimental: (§1) CYP450 enzymatic activities was determined using 5in1 marker substrate cocktail. For each reaction, enzyme activities in the presence of the test compound at 8 concentrations (0, 0.05, 0.15, 0.5, 1.5, 5.0, 15.0, or 50.0 μM) were measured in singlet (n=1). A known inhibitor for each isoform, tested at a single concentration (3.0 μM) in duplicate (n=2), was included as positive control. Incubation mixture containing pooled human liver microsomes (Corning, Xenotech, or other qualified vendors; pooled from multiple donors) at 0.2 mg/ml, marker substrates and standard inhibitors (listed in the following table) or the test compound was warm up at 37° C. for 10 minutes. The reactions were initiated by the addition of the NADPH (1.0 mM). […] After the mixture was incubated at 37° C. for 10 minutes, ice cold acetonitrile containing the internal standard (IS) was added to terminate the reactions. The metabolites generated from the marker substrates were measured by LC-MS/MS and were assessed based on peak area ratios of the analyte to IS. The remaining activity (expressed as % of control activity) were calculated; IC50 values of the test compound were determined using SigmaPlot or XLfit with 3- or 4-parameter logistic sigmoidal equation.

[2] = in vitro microsome metabolic stability, human (HLM); type: in vitro ADME; conditions: pooled human liver microsomes, pH 7.4; human liver microsomes 0.5 mg/mL, 1 μM compound, NADPH, 37° C.; read-out: HLM (T1/2, min)
Experimental: (§2) Human microsome stability (HLM), mouse microsome stability (MLM), hERG IC50, Caco-2 permeability, CYP inhibition, and pharmacokinetic (PK) properties were determined on selected compounds of the disclosure.
(§3) Pooled liver microsomes (Human and CD-1 mouse) were purchased from Corning or XenoTech LLC and stored at −80° C. freezer before use. NADPH cofactor system—β-Nicotinamide adenine dinucleotide phosphate reduced form, tetrasodium salt, NADPH·4Na(NADPH) (Vendor: Chem-impex international, Cat.No. 00616) was used. Control compounds were Testosterone, Diclofenac, Propafenone.
(§4) Stock solution—Test compound was 10 mM in DMSO (Dimethyl Sulfoxide).
(§5) Working solution—Dilute 5 μL of compound or control from stock solution (10 mM) with 495 μL 100% Acetonitrile (Conc.: 100 μM, 99% ACN, 1% DMSO; final concentration in reaction system: 1 μM, 0.99% ACN, 0.01% DMSO).
(§6) Potassium Phosphate Buffer 100 mM (pH 7.4±0.1)
(§7) NADPH Cofactor: The appropriate amount of NADPH powder was weighed, and diluted into MgCl2 solution (work solution concentration: 10 mM NADPH and 10 mM MgCl2; final concentration in reaction system: 1 mM NADPH and 1 mM MgCl2).
(§8) Liver microsome preparation (0.5 mg/mL): Pipette appropriate volume of microsome (20 mg/mL) to 100 mM buffer solution (Conc.: 0.56 mg/mL, Final concentration in reaction system: 0.5 mg/mL).
(§9) Automatic Workstation was used for all liquid handling and incubation.

[3] = in vitro microsome metabolic stability, mouse (MLM); type: in vitro ADME; conditions: pooled CD-1 mouse liver microsomes, pH 7.4; CD-1 mouse liver microsomes 0.5 mg/mL, 1 μM compound, NADPH, 37° C.; read-out: MLM (T1/2, min)
Experimental: as §2, §3, §4, §5, §6, §7, §8, §9

Caco-2 permeability test = type: in vitro ADME; conditions: human, pH 7.4, Caco-2, 2.0 μM, A to B and B to A, pH 7.40, read-out: Caco summary: ER (efflux ratio)
Experimental: (§10) Caco-2 Cells (obtained from ATCC) were seeded onto PET membranes of 96-well Insert Plates and cultured for 21-28 days before being used in the transport assays. The integrity of the monolayer was verified by performing Lucifer yellow rejection assay. The quality of the monolayer was verified by measuring the unidirectional (A to B) permeability of nadolol (low permeability marker), metoprolol (high permeability marker) and bi-directional permeability of digoxin (a P-glycoprotein substrate marker) in duplicate wells. Nadolol and metoprolol were tested at 2.0 μM, and digoxin was tested at 10.0 μM. […]
(§11) Dosing solutions were removed and mixed with transport buffer and Stop Solution containing an appropriate internal standard (IS) as T0 samples. […] All samples including T0 samples, donor samples and receiver samples were analyzed using LC/MS/MS. Concentrations of test compounds were expressed as peak area ratio of analytes to IS without a standard curve.
(§12) The A to B and B to A apparent permeability coefficients (Papp), % Solution Recovery, and Efflux ratio (ER) were determined.

Caco-2 Cells = experiment: Caco-2 permeability test; type: in vitro ADME; conditions: Caco-2, 2.0 μM, 2 hours, pH 7.40
Experimental: as §10, §11, §12

CYP 1A2 = target: T3, CYP 1A2 (Homo sapiens, UniProt P05177); experiment: microsomal CYP inhibition, 1A2; type: in vitro ADME; conditions: human liver microsomes 0.2 mg/ml, substrate Phenacetin
T3 construct: pooled human liver microsomes (Corning, Xenotech, or other qualified vendors; pooled from multiple donors); tissue Corning, Xenotech, or other qualified vendors; host or cells: pooled human liver microsomes
T3 sequence (P05177 1-516): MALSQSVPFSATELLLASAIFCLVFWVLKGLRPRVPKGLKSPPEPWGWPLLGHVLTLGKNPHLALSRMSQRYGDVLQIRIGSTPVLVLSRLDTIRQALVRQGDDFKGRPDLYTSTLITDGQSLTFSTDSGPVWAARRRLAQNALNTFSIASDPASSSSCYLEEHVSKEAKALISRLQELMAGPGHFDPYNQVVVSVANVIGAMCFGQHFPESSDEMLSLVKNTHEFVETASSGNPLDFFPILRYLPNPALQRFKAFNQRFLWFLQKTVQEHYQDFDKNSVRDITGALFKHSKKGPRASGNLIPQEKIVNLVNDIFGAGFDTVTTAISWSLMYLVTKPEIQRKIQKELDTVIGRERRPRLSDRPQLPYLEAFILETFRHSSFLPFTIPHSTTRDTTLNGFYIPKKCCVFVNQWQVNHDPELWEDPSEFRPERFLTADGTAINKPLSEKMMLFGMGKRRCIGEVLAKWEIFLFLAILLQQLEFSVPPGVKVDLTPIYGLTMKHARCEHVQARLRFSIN
Experimental: as §1

CYP 2C9 = target: T4, CYP 2C9 (Homo sapiens, UniProt P11712); experiment: microsomal CYP inhibition, 2C9; type: in vitro ADME; conditions: human liver microsomes 0.2 mg/ml, substrate Diclofenac
T4 construct: pooled human liver microsomes (Corning, Xenotech, or other qualified vendors; pooled from multiple donors); tissue Corning, Xenotech, or other qualified vendors; host or cells: pooled human liver microsomes
Experimental: as §1

CYP 3A4 = target: T5, CYP 3A4 (Homo sapiens, UniProt P08684); experiment: microsomal CYP inhibition, 3A4; type: in vitro ADME; conditions: human liver microsomes 0.2 mg/ml, substrate Midazolam; read-out: CYP inhibition (μM) 3A4 (3A4M)
T5 construct: pooled human liver microsomes (Corning, Xenotech, or other qualified vendors; pooled from multiple donors); tissue Corning, Xenotech, or other qualified vendors; host or cells: pooled human liver microsomes
Experimental: as §1

CYP 2C19 = target: T6, CYP 2C19 (Homo sapiens, UniProt P33261); experiment: microsomal CYP inhibition, 2C19; type: in vitro ADME; conditions: human liver microsomes 0.2 mg/ml, substrate S-Mephenytoin
T6 construct: pooled human liver microsomes (Corning, Xenotech, or other qualified vendors; pooled from multiple donors); tissue Corning, Xenotech, or other qualified vendors; host or cells: pooled human liver microsomes
Experimental: as §1

Chain of hERG channels (Q12809 whole entry): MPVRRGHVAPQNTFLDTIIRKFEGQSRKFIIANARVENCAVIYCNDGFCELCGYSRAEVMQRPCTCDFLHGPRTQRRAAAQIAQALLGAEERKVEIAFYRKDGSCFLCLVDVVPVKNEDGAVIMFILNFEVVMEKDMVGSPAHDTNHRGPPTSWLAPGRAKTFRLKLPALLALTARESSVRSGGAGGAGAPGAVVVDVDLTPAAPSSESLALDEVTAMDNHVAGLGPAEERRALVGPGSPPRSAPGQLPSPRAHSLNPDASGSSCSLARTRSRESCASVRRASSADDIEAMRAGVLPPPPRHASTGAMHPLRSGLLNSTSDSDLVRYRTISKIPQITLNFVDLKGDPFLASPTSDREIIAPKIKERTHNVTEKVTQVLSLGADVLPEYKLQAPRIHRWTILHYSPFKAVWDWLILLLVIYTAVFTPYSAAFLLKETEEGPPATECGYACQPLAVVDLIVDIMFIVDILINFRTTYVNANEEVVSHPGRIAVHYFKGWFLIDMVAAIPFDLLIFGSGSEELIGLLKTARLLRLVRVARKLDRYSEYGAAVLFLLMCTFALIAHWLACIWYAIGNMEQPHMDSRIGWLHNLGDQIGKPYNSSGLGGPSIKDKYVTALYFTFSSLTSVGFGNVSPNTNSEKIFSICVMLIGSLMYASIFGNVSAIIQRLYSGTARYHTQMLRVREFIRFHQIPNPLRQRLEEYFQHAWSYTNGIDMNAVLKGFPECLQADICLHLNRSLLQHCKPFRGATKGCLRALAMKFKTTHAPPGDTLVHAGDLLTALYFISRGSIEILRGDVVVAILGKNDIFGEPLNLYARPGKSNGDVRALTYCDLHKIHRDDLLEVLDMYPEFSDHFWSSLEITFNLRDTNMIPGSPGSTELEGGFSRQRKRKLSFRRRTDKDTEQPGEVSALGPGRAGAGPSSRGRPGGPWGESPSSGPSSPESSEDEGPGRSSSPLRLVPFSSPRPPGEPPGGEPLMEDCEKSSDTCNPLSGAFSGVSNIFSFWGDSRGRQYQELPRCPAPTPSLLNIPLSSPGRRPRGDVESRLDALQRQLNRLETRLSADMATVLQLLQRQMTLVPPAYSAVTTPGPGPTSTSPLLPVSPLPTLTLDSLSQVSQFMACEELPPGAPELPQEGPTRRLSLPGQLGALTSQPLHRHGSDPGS
T6 sequence (P33261 whole entry): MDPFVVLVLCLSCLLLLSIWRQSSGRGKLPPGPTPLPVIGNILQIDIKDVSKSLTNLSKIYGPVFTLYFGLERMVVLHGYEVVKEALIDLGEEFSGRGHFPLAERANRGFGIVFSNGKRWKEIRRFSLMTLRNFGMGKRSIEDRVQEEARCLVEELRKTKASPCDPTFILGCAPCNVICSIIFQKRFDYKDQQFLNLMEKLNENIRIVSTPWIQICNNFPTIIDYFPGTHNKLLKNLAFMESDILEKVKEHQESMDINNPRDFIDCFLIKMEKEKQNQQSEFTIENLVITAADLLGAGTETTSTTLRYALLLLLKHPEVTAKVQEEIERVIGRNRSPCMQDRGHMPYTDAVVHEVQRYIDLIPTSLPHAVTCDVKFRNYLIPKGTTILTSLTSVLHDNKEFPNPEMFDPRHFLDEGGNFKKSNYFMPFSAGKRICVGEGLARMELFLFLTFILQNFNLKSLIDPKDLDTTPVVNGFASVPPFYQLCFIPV
T2 sequence (P10635 whole entry): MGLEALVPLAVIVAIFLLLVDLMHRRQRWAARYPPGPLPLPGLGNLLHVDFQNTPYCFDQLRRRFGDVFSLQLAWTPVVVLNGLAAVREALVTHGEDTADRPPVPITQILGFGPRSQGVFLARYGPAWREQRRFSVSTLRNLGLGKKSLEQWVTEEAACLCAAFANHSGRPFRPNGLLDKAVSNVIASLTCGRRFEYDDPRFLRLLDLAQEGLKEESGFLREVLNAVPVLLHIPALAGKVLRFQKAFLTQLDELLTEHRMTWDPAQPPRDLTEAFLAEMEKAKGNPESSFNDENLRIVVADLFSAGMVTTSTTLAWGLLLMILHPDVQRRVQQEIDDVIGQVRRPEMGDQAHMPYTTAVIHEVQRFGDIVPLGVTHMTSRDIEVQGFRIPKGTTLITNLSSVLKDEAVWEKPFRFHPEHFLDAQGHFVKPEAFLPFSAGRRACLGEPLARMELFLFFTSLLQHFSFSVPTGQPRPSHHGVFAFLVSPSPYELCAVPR
T4 sequence (P11712 whole entry): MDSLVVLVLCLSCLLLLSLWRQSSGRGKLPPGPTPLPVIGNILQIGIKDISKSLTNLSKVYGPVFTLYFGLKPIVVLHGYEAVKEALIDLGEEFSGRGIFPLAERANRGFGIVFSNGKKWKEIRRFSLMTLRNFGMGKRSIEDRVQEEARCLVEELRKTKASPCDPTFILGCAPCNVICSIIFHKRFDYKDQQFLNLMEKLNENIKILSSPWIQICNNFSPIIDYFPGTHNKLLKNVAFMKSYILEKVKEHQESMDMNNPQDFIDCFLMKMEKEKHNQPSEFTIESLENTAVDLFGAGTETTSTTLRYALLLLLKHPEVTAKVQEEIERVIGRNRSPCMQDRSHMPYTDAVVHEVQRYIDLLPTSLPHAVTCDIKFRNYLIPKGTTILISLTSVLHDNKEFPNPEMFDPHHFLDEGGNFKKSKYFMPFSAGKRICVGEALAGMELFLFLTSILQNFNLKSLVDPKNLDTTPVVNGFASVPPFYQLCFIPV
T5 sequence (P08684 whole entry): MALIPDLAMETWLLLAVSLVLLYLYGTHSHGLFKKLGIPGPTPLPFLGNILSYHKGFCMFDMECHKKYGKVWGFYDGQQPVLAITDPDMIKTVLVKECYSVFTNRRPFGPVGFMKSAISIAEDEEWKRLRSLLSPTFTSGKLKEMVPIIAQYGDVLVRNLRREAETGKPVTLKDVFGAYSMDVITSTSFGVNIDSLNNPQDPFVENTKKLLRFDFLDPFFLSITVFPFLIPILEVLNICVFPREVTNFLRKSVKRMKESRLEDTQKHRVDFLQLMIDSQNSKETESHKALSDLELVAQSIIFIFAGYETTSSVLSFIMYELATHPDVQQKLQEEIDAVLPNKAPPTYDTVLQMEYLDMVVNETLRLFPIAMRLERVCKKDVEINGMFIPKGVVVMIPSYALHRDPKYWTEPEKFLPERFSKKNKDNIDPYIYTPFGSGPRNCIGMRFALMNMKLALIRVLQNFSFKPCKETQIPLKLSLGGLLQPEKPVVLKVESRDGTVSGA

SMILES | solubility kinetic [1] | IC50 (recombinant 15-PGDH) | also measured
COCC[S@@+]([O-])c1sc2nc(-c3cc(=O)n(C)cn3)cc(-c3ccccc3)c2c1N [Compound A, reference compound] | 64 µM (≈ 28.2 µg/mL) | < 0.0025 µM | 
CC(C)c1cc(-c2cc(=O)n(C)cn2)nc2sc([S@+]([O-])C3CCC3)c(N)c12 [Compound 33, 6-{3-amino-2-[(R)-cyclobutanesulfinyl]-4-(propan-2-yl)thieno[2,3-b]pyridin-6-yl}-3-methyl-3,4-dihydropyrimidin-4-one] |  | < 0.0025 µM | 
COCC[S+]([O-])c1sc2nc(-c3cnc4c(c3)OCCN4)cc(-c3ccnn3C)c2c1N (stereo not drawn) [Compound 32, 2-(2-methoxyethanesulfinyl)-4-(1-methyl-1H-pyrazol-5-yl)-6-{2H,3H,4H-pyrido[3,2-b][1,4]oxazin-7-yl}thieno[2,3-b]pyridin-3-amine] |  | < 0.0025 µM | 
COCC[S@@+]([O-])c1sc2nc(-c3ccc4ncncc4c3)cc(-c3ccnn3C)c2c1N [Compound 15, 2-[(R)-2-methoxyethanesulfinyl]-4-(1-methyl-1H-pyrazol-5-yl)-6-(quinazolin-6-yl)thieno[2,3-b]pyridin-3-amine] |  | < 0.0025 µM | 
Cn1nccc1-c1cc(-c2cnc3ncccn23)nc2sc([S@+]([O-])C3CCC3)c(N)c12 [Compound 5, 2-[(R)-cyclobutanesulfinyl]-6-{imidazo[1,2-a]pyrimidin-3-yl}-4-(1-methyl-1H-pyrazol-5-yl)thieno[2,3-b]pyridin-3-amine] |  | 0.0025 to 0.01 µM | 
COCC[S@@+]([O-])c1sc2nc(-c3cnc4nn(C)cc4c3)cc(C(C)(C)C)c2c1N [Compound 28, 4-tert-butyl-2-[(R)-2-methoxyethanesulfinyl]-6-{2-methyl-2H-pyrazolo[3,4-b]pyridin-5-yl}thieno[2,3-b]pyridin-3-amine] |  | < 0.0025 µM | 

Now from value to molecule, other results behind:

solubility kinetic [1] | IC50 (recombinant 15-PGDH) | SMILES | also measured
169 µM (≈ 82.6 µg/mL) | < 0.0025 µM | COCC[S@@+]([O-])c1sc2nc(-c3cnc4nn(C)cc4c3)c(C#N)c(-c3ccccc3)c2c1N [Compound 9, (R)-3-amino-2-((2-methoxyethyl)sulfinyl)-6-(2-methyl-2H-pyrazolo[3,4-b]pyridin-5-yl)-4-phenylthieno[2,3-b]pyridine-5-carbonitrile] | IC50 (hERG channels): 13 µM
188 µM (≈ 83.6 µg/mL) | < 0.0025 µM | COCC[S@@+]([O-])c1sc2nc(-c3cnc4nn(C)nc4c3)cc(C(C)(C)C)c2c1N [Compound 29, 4-tert-butyl-2-[(R)-2-methoxyethanesulfinyl]-6-{2-methyl-2H-[1,2,3]triazolo[4,5-b]pyridin-6-yl}thieno[2,3-b]pyridin-3-amine] | IC50 (CYP 2D6): 29 µM; half-life at 1 μM [2]: 100 min; half-life at 1 μM [3]: 86 min; efflux ratio at 2 h, 2 μM (Caco-2 permeability test): 1; Caco summary: permeability (high/low) (Caco-2 Cells): high; IC50 (CYP 1A2): > 50 µM; IC50 (CYP 2C9): 4 µM; IC50 (CYP 3A4): 39 µM; IC50 (hERG channels): 11 µM; IC50 (CYP 2C19): 1 µM
187 µM (≈ 80.5 µg/mL) | < 0.0025 µM | COCC[S+]([O-])c1sc2nc(-c3cnc4nn(C)cc4c3)nc(C(C)C)c2c1N (stereo not drawn) [Compound 17, 4-isopropyl-6-((2-methoxyethyl)sulfinyl)-2-(2-methyl-2H-pyrazolo[3,4-b]pyridin-5-yl)thieno[2,3-d]pyrimidin-5-amine] | 
